Source: ChEMBL document CHEMBL1146266, “Kojic acid and its manganese and zinc complexes as potential radioprotective agents” (Bioorg Med Chem Lett, 2007)
The source made the active and inactive calls. The rule behind the calls is not given here.

Assays:
Mus musculus [1] = experiment: Survival of NMRI mouse subcutaneously dosed 30 mins before cobalt 60 gamma irradiation; type: functional
Mus musculus [2] = experiment: Increase in survival of subcutaneously dosed NMRI mouse irradiated with cobalt 60 gamma relative to control; type: functional, organism-based
Mus musculus [3] = experiment: Survival of NMRI mouse for 30 days at 214 mg/kg, sc administered 24 hrs before cobalt 60 gamma irradiation; type: functional; settings: light or radiation study, route subcutaneous
Mus musculus [4] = experiment: Survival of NMRI mouse for 30 days at 142 mg/kg, sc administered 24 hrs before cobalt 60 gamma irradiation; type: functional; settings: light or radiation study, route subcutaneous
[5] = Toxicity in subcutaneously injected NMRI mouse; type: organism-based; settings: in vivo, sc
Mus musculus [6] = experiment: Survival of NMRI mouse for 30 days at 71 mg/kg, sc administered 24 hrs before cobalt 60 gamma irradiation; type: functional; settings: light or radiation study, route subcutaneous

NCCCNCCSP(=O)(O)O [AMIFOSTINE]
Survival (Mus musculus [1]): 90% | Activity (Mus musculus [2]): Active | survival at 214 mg/kg (Mus musculus [3]): 81%

O=c1cc(CO)occ1O [KOJIC ACID]
survival at 142 mg/kg (Mus musculus [4]): 63% | LD50 [5]: 1400 mg/kg | survival at 71 mg/kg (Mus musculus [6]): 28% | Activity (Mus musculus [2]): Active
